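Values below derive from 48-hour exposures of cells grown in 96-well plates, with endpoints linearly interpolated between the two concentrations bracketing the appropriate inhibition level. GI50 marks 50% less growth.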 The source made the active and inactive calls. Rule as the data show it: active = GI50 up to about 1.1 µM and inactive = higher.
Columns and labels:
Assay in all cases: inhibition of tumour cell growth, NCI panel, 48 h
[1] = system: SR
[2] = system: CCRF-CEM
[3] = system: CAKI-1
[4] = system: NCI-H23
[5] = system: EKVX
[6] = system: UO-31
[7] = system: SK-OV-3
[8] = system: HOP-62
[9] = system: UACC-62
[10] = system: OVCAR-8
[11] = system: A498
[12] = system: MCF7
[13] = system: IGROV-1
[14] = system: MDA-MB-231
[15] = system: SF-295
[16] = system: UACC-257
[17] = system: M14
[18] = system: RPMI-8226
[19] = system: HCT-15
[20] = system: SF-539
[21] = system: NCI/ADR-RES
[22] = system: SF-268
[23] = system: SN12C
[24] = system: SK-MEL-5
[25] = system: K562
[26] = system: Hs-578T
[27] = system: RXF 393
[28] = system: TK-10
[29] = system: 786-0
[30] = system: SNB-75
[31] = system: HCC 2998
[32] = system: Malme-3M
[33] = system: NCI-H460
[34] = system: U-251
[35] = system: HT-29
[36] = system: NCI-H522
[37] = system: OVCAR-4
[38] = system: DU-145
[39] = system: HCT-116
[40] = system: SW-620
[41] = system: HL-60
[42] = system: SK-MEL-28
[43] = system: BT-549
[44] = system: LOX IMVI
[45] = system: SNB-19
[46] = system: OVCAR-5
[47] = system: HOP-92
[48] = system: T47D
[49] = system: SK-MEL-2
[50] = system: OVCAR-3
[51] = system: MOLT-4
[52] = system: MDA-MB-435
[53] = system: ACHN
[54] = system: KM12
[55] = system: MDA-N
[56] = system: COLO 205
[57] = system: NCI-H226
[58] = system: A549
[59] = system: PC-3

## O=C(OCC1OC(n2nc(Cn3nnc(-c4cccnc4)n3)n(-c3cccc4ccccc34)c2=S)C(OC(=O)c2ccccc2)C1OC(=O)c1ccccc1)c1ccccc1 (stereo not drawn)
[1]
  GI50: > 100 µM (inactive)
[2]
  GI50: > 100 µM (inactive)
[3]
  GI50: > 100 µM (inactive)
[4]
  GI50: > 100 µM (inactive)
[5]
  GI50: > 100 µM (inactive)
[6]
  GI50: > 100 µM (inactive)
[7]
  GI50: > 100 µM (inactive)
[8]
  GI50: > 100 µM (inactive)
[9]
  GI50: > 100 µM (inactive)
[10]
  GI50: > 100 µM (inactive)
[11]
  GI50: > 100 µM (inactive)
[12]
  GI50: > 100 µM (inactive)
[13]
  GI50: > 100 µM (inactive)
[14]
  GI50: 53.8 µM (inactive)
[15]
  GI50: > 100 µM (inactive)
[16]
  GI50: > 100 µM (inactive)
[17]
  GI50: 35.3 µM (inactive)
[18]
  GI50: > 100 µM (inactive)
[19]
  GI50: > 100 µM
[20]
  GI50: > 100 µM (inactive)
[21]
  GI50: > 100 µM (inactive)
[22]
  GI50: > 100 µM (inactive)
[23]
  GI50: > 100 µM (inactive)
[24]
  GI50: > 100 µM (inactive)
[25]
  GI50: > 100 µM (inactive)
[26]
  GI50: > 100 µM (inactive)
[27]
  GI50: > 100 µM (inactive)
[28]
  GI50: > 100 µM (inactive)
[29]
  GI50: > 100 µM (inactive)
[30]
  GI50: 2.55 µM (inactive)
[31]
  GI50: > 100 µM (inactive)
[32]
  GI50: > 100 µM (inactive)
[33]
  GI50: > 100 µM (inactive)
[34]
  GI50: > 100 µM (inactive)
[35]
  GI50: > 100 µM (inactive)
[36]
  GI50: > 100 µM (inactive)
[37]
  GI50: > 100 µM (inactive)
[38]
  GI50: > 100 µM (inactive)
[39]
  GI50: > 100 µM (inactive)
[40]
  GI50: > 100 µM (inactive)
[41]
  GI50: > 100 µM (inactive)
[42]
  GI50: > 100 µM (inactive)
[43]
  GI50: > 100 µM (inactive)
[44]
  GI50: > 100 µM (inactive)
[45]
  GI50: > 100 µM (inactive)
[46]
  GI50: 65.9 µM (inactive)
[47]
  GI50: > 100 µM (inactive)
[48]
  GI50: > 100 µM (inactive)
[49]
  GI50: > 100 µM (inactive)
[50]
  GI50: > 100 µM (inactive)
[51]
  GI50: > 100 µM (inactive)
[52]
  GI50: > 100 µM (inactive)
[53]
  GI50: > 100 µM (inactive)
[54]
  GI50: > 100 µM (inactive)
[55]
  GI50: > 100 µM (inactive)
[56]
  GI50: > 100 µM (inactive)
[57]
  GI50: > 100 µM (inactive)
[58]
  GI50: > 100 µM (inactive)
[59]
  GI50: > 100 µM (inactive)

## N=C(N)c1ccc(/N=N\c2c(O)ccc3c2[nH]c2ccccc23)cc1
[1]
  GI50: 2.54 µM (inactive)
[2]
  GI50: 0.25 µM (active)
[3]
  GI50: > 50.8 µM (inactive)
[4]
  GI50: 10.2 µM (inactive)
[5]
  GI50: > 59.6 µM (inactive)
[6]
  GI50: 35.3 µM (inactive)
[7]
  GI50: 25.2 µM (inactive)
[8]
  GI50: 13.6 µM (inactive)
[9]
  GI50: 54.2 µM (inactive)
[10]
  GI50: 2.46 µM (inactive)
[11]
  GI50: 77.3 µM (inactive)
[12]
  GI50: 1.75 µM (inactive)
[13]
  GI50: 49.8 µM (inactive)
[14]
  GI50: 2.09 µM (inactive)
[15]
  GI50: > 51.5 µM (inactive)
[16]
  GI50: 45.4 µM (inactive)
[17]
  GI50: 36.1 µM (inactive)
[18]
  GI50: 2.19 µM (inactive)
[19]
  GI50: 39.1 µM
[20]
  GI50: > 49.5 µM (inactive)
[21]
  GI50: 58.1 µM (inactive)
[22]
  GI50: 19.5 µM (inactive)
[23]
  GI50: 16.4 µM (inactive)
[24]
  GI50: 37.8 µM (inactive)
[25]
  GI50: 1.63 µM (inactive)
[26]
  GI50: 63.8 µM (inactive)
[27]
  GI50: 53.1 µM (inactive)
[28]
  GI50: 45.5 µM (inactive)
[29]
  GI50: 1.69 µM (inactive)
[30]
  GI50: 8.38 µM (inactive)
[31]
  GI50: 1.76 µM (inactive)
[32]
  GI50: > 47.3 µM (inactive)
[33]
  GI50: 2.76 µM (inactive)
[34]
  GI50: 1.95 µM (inactive)
[35]
  GI50: 19.6 µM (inactive)
[36]
  GI50: > 53.2 µM (inactive)
[37]
  GI50: 6.14 µM (inactive)
[38]
  GI50: 34.6 µM (inactive)
[39]
  GI50: 3.31 µM (inactive)
[40]
  GI50: 2.32 µM (inactive)
[41]
  GI50: 1.15 µM (inactive)
[42]
  GI50: 18.8 µM (inactive)
[43]
  GI50: 49.8 µM (inactive)
[44]
  GI50: 2.24 µM (inactive)
[45]
  GI50: 2.47 µM (inactive)
[46]
  GI50: 41.5 µM (inactive)
[47]
  GI50: 98.6 µM (inactive)
[48]
  GI50: 2.43 µM (inactive)
[49]
  GI50: 20.3 µM (inactive)
[50]
  GI50: 2.1 µM (inactive)
[51]
  GI50: 2.23 µM (inactive)
[52]
  GI50: 3.39 µM (inactive)
[53]
  GI50: 41.6 µM (inactive)
[54]
  GI50: 1.85 µM (inactive)
[55]
  GI50: 6.3 µM (inactive)
[56]
  GI50: 21.7 µM (inactive)
[57]
  GI50: 40.5 µM (inactive)
[58]
  GI50: 2.34 µM (inactive)
[59]
  GI50: 9.73 µM (inactive)
